Laboratory results as given in ChEMBL document CHEMBL1151859, “Structure-activity relationship studies of a novel series of anthrax lethal factor inhibitors” (Bioorg Med Chem, 2009).
Active and inactive are the calls of the source. The rule behind the calls is not given here.

Tests used:
HeLa [1] = assay: Protection against anthrax protective antigen-38/LF-induced cell death in human HeLa cells assessed as MEK1 cleavage at 300 uM treated 90 mins after PA38/LA challenge immunoblotting assay; format: functional, cell-based
Lethal factor = target: T1, Lethal factor (Bacillus anthracis, UniProt P15917); assay: Inhibition of Bacillus anthracis lethal factor assessed as cleavage of MAPKK by fluorescence peptide cleavage assay
T1 sequence (P15917 whole entry): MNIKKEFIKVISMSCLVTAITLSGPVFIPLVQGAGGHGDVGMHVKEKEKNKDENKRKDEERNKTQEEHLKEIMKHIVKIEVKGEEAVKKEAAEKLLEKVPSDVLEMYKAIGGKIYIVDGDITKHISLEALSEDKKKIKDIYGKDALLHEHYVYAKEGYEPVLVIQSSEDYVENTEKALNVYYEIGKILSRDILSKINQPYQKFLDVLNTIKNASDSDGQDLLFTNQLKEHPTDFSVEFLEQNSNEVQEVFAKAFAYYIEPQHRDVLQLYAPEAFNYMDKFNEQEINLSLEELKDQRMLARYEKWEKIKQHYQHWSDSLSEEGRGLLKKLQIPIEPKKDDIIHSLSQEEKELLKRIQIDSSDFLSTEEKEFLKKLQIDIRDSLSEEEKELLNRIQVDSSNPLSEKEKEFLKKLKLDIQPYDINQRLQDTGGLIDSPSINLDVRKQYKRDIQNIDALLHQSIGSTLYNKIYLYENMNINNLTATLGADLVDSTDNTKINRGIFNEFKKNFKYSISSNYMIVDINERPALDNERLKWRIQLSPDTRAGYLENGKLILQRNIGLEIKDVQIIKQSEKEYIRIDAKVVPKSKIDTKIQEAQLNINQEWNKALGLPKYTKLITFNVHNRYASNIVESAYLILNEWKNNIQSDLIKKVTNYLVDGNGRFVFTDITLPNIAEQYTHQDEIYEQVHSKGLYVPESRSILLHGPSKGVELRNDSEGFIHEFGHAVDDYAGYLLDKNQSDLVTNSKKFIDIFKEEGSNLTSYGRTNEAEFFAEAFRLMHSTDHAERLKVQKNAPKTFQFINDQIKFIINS

RAW264.7 = assay: Protection against anthrax protective antigen-38/LF-induced cell death in mouse RAW264.7 cells pretreated for 2 hrs followed by PA38/LA challenge assessed as cell viability measured after 4 hrs by ATPlite assay; format: functional, cell-based
Bacillus anthracis [2] = assay: Antibacterial activity against Bacillus anthracis Sterene infected in A/J mouse assessed as mouse survival at 25 mg/kg, ip daily after 24 hrs of infection for 8 days relative to control; format: functional, organism-based; set-up: dose 25 mg/kg
[3] = Chemical stability of the compound; format: physicochemical
[4] = Solubility at 500 uM; format: physicochemical
Bacillus anthracis [5] = assay: Antibacterial activity against Bacillus anthracis Sterene infected in A/J mouse assessed as mouse survival at 25 mg/kg, ip daily after 24 hrs of infection for 8 days; format: functional, organism-based; set-up: dose 25 mg/kg
HeLa [6] = assay: Protection against anthrax protective antigen-38/LF-induced cell death in human HeLa cells assessed as MEK1 cleavage at 100 uM treated 90 mins after PA38/LA challenge immunoblotting assay; format: functional, cell-based

Structure (SMILES) | Activity (HeLa [1]) | IC50 (Lethal factor) [nM] | EC50 (RAW264.7) [nM] | Activity (Bacillus anthracis [2]) | Stability [3] [%] | solubility [4] | Activity (Bacillus anthracis [5]) | Activity (HeLa [6])
Nc1ccc(Nc2ccc(N)cc2S(=O)(=O)O)cc1 | Active |  |  |  |  |  |  | 
Cc1ccc(S(=O)(=O)Nc2sccc2-c2nc3ccccc3s2)cc1Cl |  | 6600 | 1000 | Active | 99 |  |  | 
COc1ccc(-c2ccc(S(=O)(=O)Nc3sccc3-c3nc4ccccc4s3)cc2)cc1 |  | 3800 | 506 |  | 84 | Insoluble | Active | Active
